{
  "source": "patent US6844014B1",
  "about": "“Herbal healing lotion for veterinary use” (priority 2002, dated 2005)",
  "origin": "cited, not measured here",
  "conditions": "treatment by previous veterinarian before the office visit",
  "data": [
    {"smiles": "C[C@]12CCC(=O)C=C1CC[C@@H]1[C@@H]2C(=O)C[C@@]2(C)[C@H]1CC[C@]2(O)C(=O)CO", "note": "[cortisone]", "values": [
      {"measurement": "result of previous treatment of the lesion", "value": "no positive result was obtained"}
    ]}
  ]
}
